# Reference: patent US6515106B1, “Lysozyme-analogous polypeptides with an anti-microbial effect, their production and use” (priority 1997, dated 2003)
# Like-named read-outs stand apart in the source and are kept apart here.
# Columns and labels:
# [1] = test system: Phytophthora nicotianae; test: Fungus tests: relative lengths of germ tubes (untitled table, buffers I/II); format: cell-based
# Procedure: Fungus tests: Relative lengths of germ tubes
# (§1) The bactericidal effect of the individual fragments is readily determined by incubation (use of 1-10 μg polypeptide for a quantity of 1×10^7 bacteria cells) for one hour with Escherichia coli or other gram-negative (e.g. Erwinia carotovora, Agrobacterium tumefaciens, Pseudomonas fluorescens) or gram-positive type of bacteria (e.g. Micrococcus lysodeikticus, Clavibacter michiganensis), followed by plating out a dilution series of the suspension, and counting the surviving bacteria. The fungicidal effect of the individual fragments is determined by incubation for 20 hours with spores of Phytophthora nicotianae, or other fungus types, followed by plating out to determine the reduced growth length of the fungus hyphae. The activity is determined in relation to purified T4 lysozyme as standard.
# [2] = test system: Escherichia coli cells; test: Relative survival rates of Escherichia coli cells after 1 hr incubation (bactericidal activity); format: cell-based; conditions: for Relative survival rate of Escherichia coli cells: in 0.1 × PBS, 1 hr incubation
# Procedure: The antibiotic effectiveness of the polypeptides of the invention is illustrated by their effect on survival rates of Escherichia coli cells in Table 1.
# as §1
# [3] = test system: Phytophthora nicotianae zoospores; test: Relative length of germ tubes of Phytophthora nicotianae zoospores (fungicidal activity, Table 2); format: cell-based; conditions: 10 μg, in 0.1 xPBS, after 7 hrs, against blank control
# [4] = test system: muramidase; test: Enzyme activity (muramidase) of the polypeptide; format: biochemical, bacteriophage T4
Sequence,"Relative lengths of germ tubes ([1]; 10 μg, in buffer II (20 μl buffer Al + 1 μl 50% DMSO/50% PBS))",Relative survival rate of Escherichia coli cells ([2]; 1 μg),Relative survival rate of Escherichia coli cells ([2]; 10 μg),"Bactericidal activity compared with T4 lysozyme, in words ([2]; comment on Table 1)",Relative length of germ tubes [3],"Relative lengths of germ tubes ([1]; 1 μg, in buffer I (20 μl buffer Al + 1 μl PBS))","Enzyme activity (muramidase), in words [4]","Enzyme activity (muramidase), in words ([4]; listed as amino acid 143-155)"
"WDEAAVNLAKSRWYNQ [Peptide A23, peptide including AA 126-141 of T4 lysozyme]",0.69,–,–,–,–,–,–,–
PNRAKRVIFTFRT [Peptide A4],–,0.74 +/− 0.14,0.05 +/− 0.09,significantly higher bactericidal activity,0.48,0.59,no enzymatic muramidase activity,none of the native enzymatic activity
